Activity calls are given as the source filed them. The calls are words filed in the database; no cut-off is given here.
Assays:
[1] = test system: Rattus norvegicus; test: Anticonvulsant activity for tonic seizure by ip administration at a dose of 10 mg/kg; Inactive; format: functional, organism-based; set-up: dose 10 mg/kg
[2] = test system: Rattus norvegicus; test: Percent of rats protected from tonic seizure by ip administration at a dose of 40 mg/kg for anticonvulsant activity; format: functional; settings: route intraperitoneal
[3] = test system: Rattus norvegicus; test: Percent of rats protected from tonic seizure by ip administration at a dose of 10 mg/kg for anticonvulsant activity; format: functional; settings: route intraperitoneal
[4] = test system: Rattus norvegicus; test: Anticonvulsant activity for tonic seizure by ip administration at a dose of 10 mg/kg; format: functional; settings: route intraperitoneal, read-out: ID50 (the source's name)

Row | Compound | ID50 [1] | Protection [2] [%] | Protection [3] [%] | ED50 [4] [mg/kg]
1 | CNc1ncnc2c1cnn2Cc1ccccc1F | inactive | 65 | 0 | 
2 | CNc1cc(N(Cc2ccccc2)C(C)=O)ncn1 |  | 55 | 20 | 
3 | NC(=O)c1cc(Cc2ccccc2)ccn1 |  | 100 | 50 | 
4 | CNc1nccn2c(Cc3ccccc3)nnc12 |  | 100 | 65 | 
5 | CNc1ncnc2c1ncn2Cc1ccccc1F [BW-A78U] |  |  | 100 | 4
6 | Cc1nc(C(N)=O)c(CCc2ccccc2)s1 |  | 65 | 30 | 
7 | Cc1nc(CCc2ccccc2)c(C(N)=O)nc1C |  | 30 | 0 | 
8 | CNC(=O)c1cn(Cc2ccccc2)cn1 |  | 90 | 20 | 
9 | CNc1ncn(Cc2ccccc2F)c2ncnc1-2 |  | 100 | 50 | 10

Reference: ChEMBL document CHEMBL1159150, “Synthesis and anticonvulsant properties of BW A78U structurally-related compounds” (1995)
